Reference: ChEMBL document CHEMBL3286303, “Synthesis and in vitro antiproliferative evaluation of novel N-alkylated 6-isobutyl- and propyl pyrimidine derivatives” (Bioorg Med Chem Lett, 2014)

Legend:
[1] = tested on: WI-38; assay: Cell cycle arrest in human WI38 cells as assessed as accumulation at sub-G1 phase at 0.1 uM after 24 hrs by propidium iodide staining-based flow cytometric analysis relative to control; conditions: wi-38, 24 h
[2] = tested on: K562; assay: Cell cycle arrest in human K562 cells as assessed as accumulation at S phase at 1 uM after 24 hrs by propidium iodide staining-based flow cytometric analysis relative to control; assay type: functional
[3] = tested on: K562; assay: Cell cycle arrest in human K562 cells as assessed as accumulation at G1 phase at 0.5 uM after 48 hrs by propidium iodide staining-based flow cytometric analysis relative to control; assay type: functional
[4] = tested on: SW-620; assay: Cell cycle arrest in human SW620 cells as assessed as accumulation at G1 phase at 0.1 uM after 24 hrs by propidium iodide staining-based flow cytometric analysis relative to control; assay type: functional
[5] = tested on: SW-620; assay: Cell cycle arrest in human SW620 cells as assessed as accumulation at G2/M phase at 1 uM after 48 hrs by propidium iodide staining-based flow cytometric analysis relative to control; assay type: functional
[6] = tested on: MCF7; assay: Antiproliferative activity against human MCF7 cells after 72 hrs by MTT assay; assay type: functional, cell-based
[7] = tested on: SW-620; assay: Cell cycle arrest in human SW620 cells as assessed as accumulation at G2/M phase at 1 uM after 24 hrs by propidium iodide staining-based flow cytometric analysis relative to control; assay type: functional
[8] = tested on: SW-620; assay: Cell cycle arrest in human SW620 cells as assessed as accumulation at sub-G1 phase at 1 uM after 48 hrs by propidium iodide staining-based flow cytometric analysis relative to control; assay type: functional
[9] = tested on: MCF7; assay: Cell cycle arrest in human MCF7 cells as assessed as accumulation at G2/M phase at 1 uM after 24 hrs by propidium iodide staining-based flow cytometric analysis relative to control; assay type: functional
[10] = tested on: SW-620; assay: Cell cycle arrest in human SW620 cells as assessed as accumulation at G1 phase at 1 uM after 24 hrs by propidium iodide staining-based flow cytometric analysis relative to control; assay type: functional

Q: With COCn1c(CC(COCc2ccccc2)COCc2ccccc2)c(C)c(=O)n(COC)c1=O as the compound, how does the Activity [1] read?
A: The Activity was 21.9%.

Q: And the Activity [2]?
A: The Activity was 26.6%.

Q: What about the Activity [3] of the same compound?
A: The Activity was 64.4%.

Q: And the Activity [4]?
A: Its Activity is 51.5%.

Q: What about the Activity [5] of the same compound?
A: The Activity was 15.8%.

Q: What about the Activity [6] of the same compound?
A: The Activity was “Dose-dependent effect”.

Q: And the IC50 ([6]; MCF7, 72 h)?
A: The IC50 was 400 nM.

Q: What about the Activity [7] of the same compound?
A: Its Activity is 20.1%.

Q: And the Activity [8]?
A: The Activity was 6.7%.

Q: What about the Activity [9] of the same compound?
A: Its Activity is 8.7%.

Q: And the Activity [10]?
A: The Activity was 55.9%.
